According to paper PMC10159843, “Babesia duncani multi-omics identifies virulence factors and drug targets” (Nature Microbiology, 2023):
Like-named read-outs stand apart in the source and are kept apart here.

Columns and labels:
B. duncani [1] = assay: microbe, parasite or virus in culture; format: cell-based, Babesia duncani
B. duncani [2] = settings: continuous in vitro culture in human erythrocytes; cited from earlier work
B. duncani DHFR-TS = B. duncani DHFR-TS (Babesia duncani, UniProt A0AAD9UQZ8); format: biochemical
B. microti DHFR-TS = B. microti DHFR-TS (Babesia microti, UniProt A0A1R4AAV1); format: biochemical
[3] = MTT cytotoxicity on HeLa cells; format: cell-based, human; settings: human, HeLa cells, read-out: HeLa LC50
Experimental: (§1) HeLa, HepG2, HEK and HCT116 cell lines were obtained from the American Type Culture Collection and maintained in Dulbecco’s modified Eagle’s medium (Invitrogen 11995-065) containing 25 mM glucose, 1 mM sodium pyruvate and supplemented with 5 mM HEPES, 10% FBS and penicillin-streptomycin (50 U ml^−1 penicillin, 50 µg ml^−1 streptomycin). An estimated 20,000 cells per well were seeded in a 96-well tissue culture plate and allowed to adhere. After 24 h, cells were treated with either vehicle alone (0.1% dimethylsulfoxide) or vehicle containing different concentrations of the target drugs using a 2-fold serial dilution starting at 10 mM. Dimethylsulfoxide at 10% was used as a positive control. Cells were incubated at 37 °C for 72 h, after which each well was incubated with 0.5 mg ml^−1 of MTT reagent (Cayman Chemical, 10009591) for 4 h in the dark at 37 °C. Following addition of 100 µl dimethylsulfoxide to each well, absorbance was measured at optical density (OD)590 nm using Spectra max plate reader. From the obtained OD values, percent cell viability was calculated by normalizing to the mean of 10% dimethylsulfoxide wells (set as 100% toxicity) and the mean of the vehicle control wells (set as 0% toxicity). Dose-response curves were plotted using GraphPad Prism v9.1.2

[4] = MTT cytotoxicity on HepG2 cells; format: cell-based, human; settings: human, HepG2 cells, read-out: HepG2 LC50
Experimental: as §1

[5] = MTT cytotoxicity on HEK293 cells; format: cell-based, human; settings: human, HEK293 cells, read-out: HEK293 LC50
Experimental: as §1

[6] = MTT cytotoxicity on HCT116 cells; format: cell-based, human; settings: human, HCT116 cells, read-out: HCT LC50
Experimental: as §1

HeLa = assay: MTT cytotoxicity on HeLa cells; format: cell-based, human; settings: 72 h, read-out: HeLa LC50
Experimental: as §1

HepG2 = assay: MTT cytotoxicity on HepG2 cells; format: cell-based, human; settings: 72 h, read-out: HepG2 LC50
Experimental: as §1

HEK293 = assay: MTT cytotoxicity on HEK293 cells; format: cell-based, human; settings: 72 h, read-out: HEK293 LC50
Experimental: as §1

HCT116 = assay: MTT cytotoxicity on HCT116 cells; format: cell-based, human; settings: 72 h, read-out: HCT LC50
Experimental: as §1

human cell lines = assay: In vitro therapeutic index of antifolates against human cell lines; format: cell-based; settings: human cell lines versus B. duncani IC50
Experimental: Drug efficacy against B. duncani in vitro was determined using the SYBR Green assay as previously described. Briefly, a culture of B. duncani-infected human erythrocytes at 0.1% parasitemia and 5% haematocrit was maintained for 60 h in vitro in a 96-well plate in the absence or presence of varying concentrations of the drug of interest at concentrations ranging between 0.6 nM and 10 µM. An equal volume of lysis buffer (0.008% saponin, 0.08% Triton X-100, 20 mM Tris-HCl (pH 7.5) and 5 mM EDTA) containing SYBR Green-I (0.01%) was added to each well and the plate incubated at 37 °C for 1 h in the dark. Fluorescence counts in each well were measured at 480 nm (excitation) and 540 nm (emission) using a BioTek Synergy Mx microplate reader and background fluorescence from control wells containing uninfected RBCs was subtracted. A dose-response curve representing the fluorescence counts against the logarithm of the drug concentration was fitted by nonlinear regression and used to determine the IC50 of each drug. Analysis was conducted using GraphPad Prism 9.2.1. For each drug, two independent experiments, each with biological triplicates, were conducted. Data are shown as mean ± s.d. […]

BdDHFR-TS = assay: Inhibition of DHFR enzymatic activity of recombinant BdDHFR-TS; format: biochemical, B. duncani; settings: 0.1 μM enzyme, 300 μM DHF, 300 μM NADPH
Experimental: (§2) The IC50 was determined from a sigmoidal dose-response curve using GraphPad Prism v9.1.2. […]
(§3) denatured (2 X 20 min in 0.5N NaOH; 1.5 M NaCl) and neutralized (2 X 20 min in 0.5 M Tris-HCl, pH 7.5; 1.5 M NaCl). Southern blotting was done on nylon membrane, positively charged
(§4) (Cat. No. 1417240, Roche) using 10X SSC and followed by UV crosslinking of transferred DNA.
(§5) The membrane was hybridized overnight at 26 °C with the telomere probe and then washed twice for 5 min each in 2X SSC and for 20 min each in 0.5X SSC at 26°C. Bound probe was detected with disodium-2-chloro-5(4 methoxyspiro (1,2-dioxetane-3.2´-[5-chloro]tricycle[3.3.1.1.3.7] decan)-4-yl)-1-phenyl phosphate (CDP-StarTM, Cat. No.12041677001, Roche) according to the manufacturer’s instructions. The membrane was visualized using an Amersham ImageQuant 800 system (GE Healthcare Bio-Science AB, Uppsala, Sweden).
(§6) Cloning, Expression, and Purification of recombinant B. duncani and B. microti DHFR-TS […]
(§7) duncani (BdDHFR-TS) and B. microti (BmDHFR-TS) were cloned into pMAL-c4x by GenScript USA Inc. Both enzymes were expressed as fusion proteins with N’-terminal maltose-binding protein (MBP) tag. Constructs of pMAL-c4x-BdDHFR-TS and pMAL-c4x-BmDHFR-TS were transformed by heat shock into E. coli BL-21(DE3). E. coli BL-21(DE3) harboring pMAL-c4x-DHFR-TS was grown overnight in 2 ml LB ampicillin (100 µg/mL). […]

BmDHFR-TS = assay: Inhibition of DHFR enzymatic activity of recombinant BmDHFR-TS; format: biochemical, B. microti; settings: 0.1 μM enzyme, 300 μM DHF, 300 μM NADPH
Experimental: as §2, §3, §4, §5, §6, §7

B. duncani DHFR-TS, sequence (A0AAD9UQZ8 1-514): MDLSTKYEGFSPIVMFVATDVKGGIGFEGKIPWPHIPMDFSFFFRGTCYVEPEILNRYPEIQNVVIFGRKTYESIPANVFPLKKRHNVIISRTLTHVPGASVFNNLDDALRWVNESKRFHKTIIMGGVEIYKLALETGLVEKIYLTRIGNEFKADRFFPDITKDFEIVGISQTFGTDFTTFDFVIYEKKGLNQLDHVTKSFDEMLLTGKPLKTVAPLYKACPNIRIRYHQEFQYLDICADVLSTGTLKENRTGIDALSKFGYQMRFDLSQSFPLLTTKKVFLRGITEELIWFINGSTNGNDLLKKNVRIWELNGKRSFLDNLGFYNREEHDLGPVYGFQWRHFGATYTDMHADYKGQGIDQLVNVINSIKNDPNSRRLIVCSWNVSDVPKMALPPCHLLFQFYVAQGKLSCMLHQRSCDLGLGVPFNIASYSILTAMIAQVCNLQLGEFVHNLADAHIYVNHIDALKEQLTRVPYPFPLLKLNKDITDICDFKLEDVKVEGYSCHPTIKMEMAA
B. microti DHFR-TS, sequence (A0A1R4AAV1 1-502): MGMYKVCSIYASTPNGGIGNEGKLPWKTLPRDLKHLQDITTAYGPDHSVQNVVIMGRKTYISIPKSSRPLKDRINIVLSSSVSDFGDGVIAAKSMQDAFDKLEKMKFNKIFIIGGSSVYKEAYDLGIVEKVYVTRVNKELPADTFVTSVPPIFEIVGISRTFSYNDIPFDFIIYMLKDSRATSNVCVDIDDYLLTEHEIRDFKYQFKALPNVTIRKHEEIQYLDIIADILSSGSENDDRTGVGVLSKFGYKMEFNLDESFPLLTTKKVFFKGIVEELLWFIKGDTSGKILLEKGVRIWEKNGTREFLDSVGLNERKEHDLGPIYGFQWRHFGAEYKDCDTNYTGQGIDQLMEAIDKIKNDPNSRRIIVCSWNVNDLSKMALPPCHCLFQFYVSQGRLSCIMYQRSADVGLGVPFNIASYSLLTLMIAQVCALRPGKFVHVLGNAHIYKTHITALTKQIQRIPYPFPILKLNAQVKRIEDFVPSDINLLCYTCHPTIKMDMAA

**Q.** Which IC50 (B. duncani [1]; Babesia duncani, Erythrocyte, read-out: IC50 of atovaquone, parental isolate WA1) does the source give for `O=C1C(O)=C([C@H]2CC[C@H](c3ccc(Cl)cc3)CC2)C(=O)c2ccccc21` [Atovaquone] here?
**A.** Its IC50 is 0.072 µM.

**Q.** What about the “susceptibility of B. duncani” value (B. duncani [2]) of the same molecule?
**A.** Its value is “low susceptibility”.

**Q.** Which results are given for `NC(=O)C1=CN([C@@H]2O[C@H](COP(=O)(O)OP(=O)(O)OC[C@H]3O[C@@H](n4cnc5c(N)ncnc54)[C@H](OP(=O)(O)O)[C@@H]3O)[C@@H](O)[C@H]2O)C=CC1` [NADPH]?
**A.** Vmax (B. duncani DHFR-TS): 9.8 ± 2.1 μmol · min^-1 ×10^4; kcat (B. duncani DHFR-TS): 0.4 ± 0.1 s⁻¹; Km (B. duncani DHFR-TS; complementary ligand at 300 μM): 32.9 ± 1 µM; Vmax (B. microti DHFR-TS): 10.1 ± 1.6 μmol · min^-1 ×10^4; kcat (B. microti DHFR-TS): 1.7 ± 0.3 s⁻¹; Km (B. microti DHFR-TS; complementary ligand at 300 μM): 27.3 ± 0.2 µM

**Q.** Which IC50 (B. duncani [1]; Babesia duncani, Erythrocyte, 60 h, read-out: B. duncani IC50) does the source give for `CCc1nc(N)nc(N)c1-c1ccc(Cl)cc1` [Pyrimethamine] here?
**A.** Its IC50 is 0.94 ± 0.017 µM.

**Q.** And the CC50 at 72 h [3]?
**A.** Its CC50 at 72 h is greater than 900 µM.

**Q.** And the CC50 at 72 h [4]?
**A.** The CC50 at 72 h was 1690 µM.

**Q.** What about the CC50 at 72 h [5] of the same molecule?
**A.** Its CC50 at 72 h is 500 µM.

**Q.** What about the CC50 at 72 h [6] of the same molecule?
**A.** Its CC50 at 72 h is greater than 30 µM.

**Q.** For `CC1(C)N=C(N)N=C(N)N1OCCCOc1cc(Cl)c(Cl)cc1Cl` [WR-99210], which IC50 (B. duncani [1]; read-out: B. duncani IC50) is on record?
**A.** Its IC50 is 0.00058 µM.

**Q.** And the CC50 (HeLa)?
**A.** Its CC50 is greater than 900 µM.

**Q.** And the CC50 (HepG2)?
**A.** The CC50 was 1100 µM.

**Q.** And the CC50 (HEK293)?
**A.** The CC50 was 1000 µM.

**Q.** What about the CC50 (HCT116) of the same molecule?
**A.** Its CC50 is 1050 µM.

**Q.** What about the “TI (therapeutic index)” value (human cell lines) of the same molecule?
**A.** The value was greater than 15K.

**Q.** And the IC50 (BdDHFR-TS)?
**A.** The IC50 was 0.0039 µM.

**Q.** And the IC50 (BmDHFR-TS)?
**A.** The IC50 was 0.0068 µM.

**Q.** For `CC[C@H]1OC(=O)[C@H](C)[C@@H](O[C@H]2C[C@@](C)(OC)[C@@H](O)[C@H](C)O2)[C@H](C)[C@@H](O[C@@H]2O[C@H](C)C[C@H](N(C)C)[C@H]2O)[C@](C)(O)C[C@@H](C)CN(C)[C@H](C)[C@@H](O)[C@]1(C)O` [azithromycin], which “susceptibility of B. duncani” value (B. duncani [2]) is on record?
**A.** The value was “low susceptibility”.

**Q.** For `CCC[C@@H]1C[C@@H](C(=O)N[C@@H]([C@H]2O[C@H](SC)[C@H](O)[C@@H](O)[C@H]2O)[C@H](C)Cl)N(C)C1` [clindamycin], which “susceptibility of B. duncani” value (B. duncani [2]) is on record?
**A.** The value was “low susceptibility”.

**Q.** Which “susceptibility of B. duncani” value (B. duncani [2]) does the source give for `C=C[C@H]1C[N@@]2CC[C@H]1C[C@H]2[C@H](O)c1ccnc2ccc(OC)cc12` [quinine] here?
**A.** Its value is “low susceptibility”.
